Experimental data: PMC5934670 (Nucleic Acids Research, 2018)

Key:
[1] = target: T1, KdpE (Escherichia coli, UniProt P21866); assay: Genomic SELEX-chip, rise of specific DNA binding; conditions: phosphodonor, no KdpD; phosphorylation itself not measured; covalent
T1 sequence (P21866 1-225): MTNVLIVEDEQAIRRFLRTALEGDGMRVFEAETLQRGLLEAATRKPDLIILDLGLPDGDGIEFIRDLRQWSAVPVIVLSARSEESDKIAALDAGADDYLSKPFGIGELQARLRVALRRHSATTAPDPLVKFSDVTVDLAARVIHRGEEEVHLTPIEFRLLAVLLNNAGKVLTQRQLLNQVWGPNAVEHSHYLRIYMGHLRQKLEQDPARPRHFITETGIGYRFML

[2] = target: T2, TorR (Escherichia coli, UniProt P38684); assay: Genomic SELEX-chip, rise of specific DNA binding; conditions: phosphodonor, no TorS; phosphorylation itself not measured; covalent
T2 sequence (P38684 1-230): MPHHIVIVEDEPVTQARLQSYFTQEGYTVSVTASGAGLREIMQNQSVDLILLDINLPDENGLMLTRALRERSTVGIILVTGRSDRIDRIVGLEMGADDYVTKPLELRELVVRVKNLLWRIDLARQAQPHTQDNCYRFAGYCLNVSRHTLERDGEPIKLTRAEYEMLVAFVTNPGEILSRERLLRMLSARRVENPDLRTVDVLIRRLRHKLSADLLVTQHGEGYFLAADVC

[3] = target: LacI (Escherichia coli, UniProt P03023); assay: Genomic SELEX-chip, loss of DNA binding; conditions: inducer; increasing IPTG; lac operator DNA
[4] = target: T3, NanR (Escherichia coli, UniProt P0A8W0); assay: Genomic SELEX-chip, change of DNA-binding specificity; conditions: effector; genomic DNA library
T3 sequence (P0A8W0 1-263): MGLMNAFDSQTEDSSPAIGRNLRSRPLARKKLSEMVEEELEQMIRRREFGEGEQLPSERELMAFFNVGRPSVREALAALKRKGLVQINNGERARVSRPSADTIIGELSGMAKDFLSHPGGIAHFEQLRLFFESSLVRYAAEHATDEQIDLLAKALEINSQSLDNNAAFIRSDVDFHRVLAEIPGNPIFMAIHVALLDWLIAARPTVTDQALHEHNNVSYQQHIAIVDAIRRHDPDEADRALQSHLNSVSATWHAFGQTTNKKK

Chain of LacI (P03023 whole entry): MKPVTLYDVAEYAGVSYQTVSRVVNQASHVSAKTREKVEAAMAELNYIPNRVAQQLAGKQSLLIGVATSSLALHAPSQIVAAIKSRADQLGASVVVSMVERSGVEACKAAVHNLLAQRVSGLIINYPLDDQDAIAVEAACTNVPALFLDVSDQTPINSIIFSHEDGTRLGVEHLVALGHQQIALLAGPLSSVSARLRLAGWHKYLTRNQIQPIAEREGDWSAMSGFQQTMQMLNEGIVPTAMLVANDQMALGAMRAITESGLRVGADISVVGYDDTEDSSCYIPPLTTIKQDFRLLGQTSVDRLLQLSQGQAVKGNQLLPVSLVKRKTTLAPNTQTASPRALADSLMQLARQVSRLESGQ

## CC(=O)OP(=O)(O)O [AcP]
[1]
  Genomic SELEX-chip, rise of specific DNA binding: The binding affinity to this single target increased in the presence of AcP
[2]
  Genomic SELEX-chip, rise of specific DNA binding: the level of TorR binding to this target was higher in the presence of AcP

## CC(C)S[C@@H]1O[C@H](CO)[C@H](O)[C@H](O)[C@H]1O [IPTG]
[3]
  Genomic SELEX-chip, loss of DNA binding: level of LacI binding at the lacZ promoter region decreased concomitant with the increased addition of IPTG

## CC(=O)N[C@H]1[C@H]([C@H](O)[C@H](O)CO)OC(O)(C(=O)O)C[C@@H]1O (stereo partly shown) [Neu5Ac]
[4]
  Genomic SELEX-chip, change of DNA-binding specificity: The binding of NanR to these non-specific sites disappeared in the presence of Neu5Ac
